Values quoted from earlier work, collected in patent US20230240985A1, “STABLE PHARMACEUTICAL COMPOSITION OF TOPIRAMATE” (ALKEM LABORATORIES LIMITED, priority 2022, published 2023).

CC1(C)O[C@@H]2[C@@H](CO[C@@]3(COS(N)(=O)=O)OC(C)(C)O[C@@H]23)O1 [Topiramate, 2,3:4,5-Di-O-isopropylidine-β-D-fructopyranose sulfamate]
solubility in organic solvents (acetone, chloroform, dimethylsulfoxide, and ethanol): freely soluble | solubility in alkaline solutions (alkaline solutions containing sodium hydroxide or sodium phosphate, pH of 9 to 10): most soluble | stability in aqueous solution (aqueous solution): not stable | pH of saturated solution (saturated solution): 6.3
